Laboratory results as given in ChEMBL document CHEMBL3044854, “Synthesis and biological evaluation of diamide derivatives of (S)-BINOL and biphenyl as potential anti-inflammatory/anti-arthritic agents” (2013).

Key:
[1] = Anti-inflammatory activity in Homo sapiens (human) RBCs assessed as prevention of hemolysis at 200 ug/mL after 30 min by UV-Vis spectrophotometric analysis relative to control; format: functional, Erythrocyte
[2] = In vitro antiarthritic activity assessed as inhibition of bovine serum albumin denaturation at 200 ug/mL after 20 min by UV-Visible spectrophotometric analysis relative to control; format: functional
[3] = Anti-inflammatory activity in Homo sapiens (human) RBCs assessed as prevention of hemolysis at 50 ug/mL after 30 min by UV-Vis spectrophotometric analysis relative to control; format: functional, Erythrocyte
[4] = In vitro antiarthritic activity assessed as inhibition of bovine serum albumin denaturation after 20 min by UV-Visible spectrophotometric analysis; format: functional
[5] = Anti-inflammatory activity in Homo sapiens (human) RBCs assessed as prevention of hemolysis at 100 ug/mL after 30 min by UV-Vis spectrophotometric analysis relative to control; format: functional, Erythrocyte
Erythrocyte = assay: Anti-inflammatory activity in Homo sapiens (human) RBCs assessed as prevention of hemolysis after 30 min by UV-Vis spectrophotometric analysis; format: functional, cell-based
[6] = In vitro antiarthritic activity assessed as inhibition of bovine serum albumin denaturation at 50 ug/mL after 20 min by UV-Visible spectrophotometric analysis relative to control; format: functional
[7] = Anti-inflammatory activity in Homo sapiens (human) RBCs assessed as prevention of hemolysis at 10 ug/mL after 30 min by UV-Vis spectrophotometric analysis relative to control; format: functional, Erythrocyte
[8] = In vitro antiarthritic activity assessed as inhibition of bovine serum albumin denaturation at 800 ug/mL after 20 min by UV-Visible spectrophotometric analysis relative to control; format: functional
[9] = In vitro antiarthritic activity assessed as inhibition of bovine serum albumin denaturation at 400 ug/mL after 20 min by UV-Visible spectrophotometric analysis relative to control; format: functional
[10] = In vitro antiarthritic activity assessed as inhibition of bovine serum albumin denaturation at 100 ug/mL after 20 min by UV-Visible spectrophotometric analysis relative to control; format: functional

Compound	Activity [1] [%]	inhibition [2] [%]	Activity [3] [%]	inhibition [4]	Activity [5] [%]	inhibition (Erythrocyte)	inhibition [6] [%]	Activity [7] [%]	inhibition [8] [%]	inhibition [9] [%]	inhibition [10] [%]
O=C(Cn1cnnn1)NCCSCCOc1ccccc1-c1ccccc1OCCSCCNC(=O)Cn1cnnn1	89.4	65.1	63.3	Dose-dependent effect	75.3	Dose-dependent effect	21.6	54	91.9	76.3	42.2
O=C(NCCSCCOc1ccccc1-c1ccccc1OCCSCCNC(=O)c1ccco1)c1ccco1	94.1	68.8	62.9	Dose-dependent effect	84.7	Dose-dependent effect	25.7	55.2	97.2	83.1	46.6
O=C(NCCSCCOc1ccc2ccccc2c1-c1c(OCCSCCNC(=O)c2ccco2)ccc2ccccc12)c1ccco1	96.2	71.5	65.5	Dose-dependent effect	88.9	Dose-dependent effect	29.5	56.5	98.7	87.8	50.8
O=C(Cc1cccs1)NCCSCCOc1ccccc1-c1ccccc1OCCSCCNC(=O)Cc1cccs1	83.3	41.1	58.6	Dose-dependent effect	67.2	Dose-dependent effect	28.3	47.3	84.8	69.6	34.9
O=C(Cn1cnnn1)NCCSCCOc1ccc2ccccc2c1-c1c(OCCSCCNC(=O)Cn2cnnn2)ccc2ccccc12	91.6	67.1	69.7	Dose-dependent effect	82.5	Dose-dependent effect	19.6	61.9	94.2	74.1	39.6
O=C(NCCSCCOc1ccc2ccccc2c1-c1c(OCCSCCNC(=O)c2ccccc2)ccc2ccccc12)c1ccccc1	79.4	52.3	51.4	Dose-dependent effect	63.6	Dose-dependent effect	19.5	34.5	82.7	65.8	30.3
C[C@]12C=CC(=O)C=C1CC[C@@H]1[C@@H]2[C@@H](O)C[C@@]2(C)[C@H]1CC[C@]2(O)C(=O)CO [PREDNISOLONE]	91	–	57.9	–	84.8	–	–	46	–	–	–
O=C(O)Cc1ccccc1Nc1c(Cl)cccc1Cl	–	15.2	–	–	–	–	5.6	–	76.7	21.6	10.9
O=C(NCCSCCOc1ccccc1-c1ccccc1OCCSCCNC(=O)c1ccccc1)c1ccccc1	77.5	53	49	Dose-dependent effect	60.7	Dose-dependent effect	15.8	35.7	81.8	67.8	38.2
O=C(Cc1cccs1)NCCSCCOc1ccc2ccccc2c1-c1c(OCCSCCNC(=O)Cc2cccs2)ccc2ccccc12	86	59.1	61.7	Dose-dependent effect	72.8	Dose-dependent effect	23.6	50.2	87.4	73.3	42.2
